Results reported in PubChem BioAssay (NCI).
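Briefly, cells in 96-well plates were exposed to five compound concentrations for 48 h, and endpoints were estimated by linear interpolation. TGI is the concentration that stops growth completely.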

Columns and labels:
Test in all cases: NCI tumour cell line growth inhibition, 48 h
SK-OV-3 ovarian = test system: SK-OV-3 ovarian
HT29 colon = test system: HT29 colon
M14 melanoma = test system: M14 melanoma
KM12 colon = test system: KM12 colon
CCRF-CEM leukemia = test system: CCRF-CEM leukemia
NCI/ADR-RES ovarian = test system: NCI/ADR-RES ovarian
IGROV1 ovarian = test system: IGROV1 ovarian
HOP-92 NSCLC = test system: HOP-92 NSCLC
OVCAR-8 ovarian = test system: OVCAR-8 ovarian
NCI-H460 lung = test system: NCI-H460 lung
A549 NSCLC = test system: A549 NSCLC
HCT-116 colon = test system: HCT-116 colon
PC-3 prostate = test system: PC-3 prostate
SNB-19 CNS = test system: SNB-19 CNS
SNB-75 CNS = test system: SNB-75 CNS
MDA-MB-435 = test system: MDA-MB-435
SN12C renal = test system: SN12C renal
MALME-3M melanoma = test system: MALME-3M melanoma

Row | SMILES | TGI (SK-OV-3 ovarian) [µM] | TGI (HT29 colon) [µM] | TGI (M14 melanoma) [µM] | TGI (KM12 colon) [µM] | TGI (CCRF-CEM leukemia) [µM] | TGI (NCI/ADR-RES ovarian) [µM] | TGI (IGROV1 ovarian) [µM] | TGI (HOP-92 NSCLC) [µM] | TGI (OVCAR-8 ovarian) [µM] | TGI (NCI-H460 lung) [µM] | TGI (A549 NSCLC) [µM] | TGI (HCT-116 colon) [µM] | TGI (PC-3 prostate) [µM] | TGI (SNB-19 CNS) [µM] | TGI (SNB-75 CNS) [µM] | TGI (MDA-MB-435) [µM] | TGI (SN12C renal) [µM] | TGI (MALME-3M melanoma) [µM]
1 | Cc1cc(S(=O)(=O)Nc2nnc3c(Cl)cc(C(F)(F)F)cn23)c(S)cc1Cl | > 100 | > 100 | > 100 | > 100 | > 100 | > 100 | > 100 | > 100 | > 100 | > 100 | > 100 | > 100 | > 100 | > 91.4 | 9.12 | > 100 | > 100 | > 100
2 | CCOC(=O)CN1C(=O)c2c(NC(=O)C(=O)O)cccc2S1(=O)=O | > 100 | > 100 | > 100 | > 100 | > 100 | > 100 | > 100 | > 100 | > 100 | > 100 | > 100 | > 100 | > 100 | > 100 | – | > 100 | > 100 | > 100
3 | O=C1/C(=C/c2cccc([N+](=O)[O-])c2)Cc2ccccc21 | > 100 | > 100 | > 100 | > 100 | > 100 | > 100 | > 100 | > 100 | > 100 | > 100 | > 100 | > 100 | > 100 | > 100 | > 100 | > 100 | > 100 | > 100
4 | COC(=O)CCc1cc(OC)c2oc(-c3ccc(OC)c(OC)c3)c(CO)c2c1 | > 100 | > 100 | > 100 | > 100 | > 100 | > 100 | > 100 | > 100 | > 100 | > 100 | > 100 | > 100 | > 100 | > 100 | – | > 100 | > 100 | > 100
5 | CCOC(=O)C(CCSC)(CCSC)C(=O)OCC | 72.2 | > 100 | > 100 | > 100 | > 100 | > 100 | > 100 | – | > 100 | > 100 | > 100 | > 100 | > 100 | > 100 | > 100 | > 100 | > 100 | > 100
6 | CCOC(=O)Cc1ccc(Nc2nc3cc(F)c(F)cc3nc2C(=O)OCC)cc1 | > 100 | > 100 | > 100 | > 100 | > 100 | > 100 | > 100 | 54.6 | > 100 | > 100 | > 100 | > 100 | > 100 | > 100 | > 100 | > 100 | > 100 | > 100
7 | CCOC(=O)c1c(Br)c(-c2ccc([N+](=O)[O-])cc2)c(Br)n1C | > 10 | > 10 | > 10 | > 10 | > 10 | > 10 | > 10 | > 10 | > 10 | > 10 | > 10 | > 10 | > 10 | > 10 | > 10 | > 10 | > 10 | > 10
8 | Oc1c(Cl)c(Cl)c(O)c(-c2cnc(-c3ncc(-c4c(O)c(Cl)c(Cl)c(O)c4Cl)s3)s2)c1Cl | > 100 | > 100 | 47.2 | > 100 | > 100 | 71.6 | 37 | > 100 | 52.7 | > 100 | > 100 | 42 | > 100 | 88.1 | 71.7 | 47.7 | 66.3 | 71.3
9 | CN(C)C1(N(C)C)Oc2c(c(=O)n(C)c(=O)n2C)C(c2ccc(F)cc2)C1(F)F (stereo unspecified) | > 100 | – | > 100 | > 100 | > 100 | > 100 | – | > 100 | – | > 100 | > 100 | > 100 | > 100 | > 100 | > 100 | > 100 | – | –
10 | C[N+]1(C)C/C(=C\C=C\c2ccccc2)C(=O)/C(=C/C=C/c2ccccc2)C1 | 98.8 | 26.6 | 39.1 | 10.3 | 13.7 | > 100 | 35.8 | 70.3 | 53.1 | 59.1 | > 100 | 28.9 | 98.7 | 27.5 | 40.3 | 20 | 62.5 | 40.4
11 | O=C(O)c1ccc(Nc2nc3ccc(C(F)(F)F)cc3nc2-c2ccccc2)cc1 | – | > 10 | > 100 | > 10 | > 100 | 96.2 | > 100 | – | > 100 | > 100 | > 100 | > 100 | > 100 | > 100 | > 100 | > 100 | > 100 | > 100
12 | CC(c1ccccc1)n1c2ccccc2c2c(N)ncnc21 (stereo unspecified) | 29.5 | 31.6 | 34.1 | – | > 100 | 46.3 | 38.2 | 27.6 | 31.8 | 58.3 | 46.3 | 38.5 | 34.4 | 33.8 | 9.19 | 31 | – | 36
13 | CC1=NC(=O)CNN1C1=NNC2(C(=O)N1)c1ccccc1-c1ccccc12 | > 100 | > 100 | > 100 | – | > 100 | > 100 | > 100 | > 100 | > 100 | > 100 | > 100 | > 100 | > 100 | > 100 | > 100 | > 100 | > 100 | > 100
14 | COc1c(N2CCCCC2)c2c(=O)c3ccccc3oc2c2c3ccccc3n(C)c12 | > 100 | > 100 | > 100 | > 100 | > 100 | > 100 | – | > 100 | > 100 | > 100 | > 100 | > 100 | > 100 | > 100 | > 100 | > 100 | > 100 | > 100
15 | Cc1ccc(C(CCO)CCO)nc1 | > 100 | > 100 | > 100 | > 100 | > 100 | > 100 | – | > 100 | > 100 | > 100 | > 100 | > 100 | > 100 | > 100 | > 100 | > 100 | > 100 | > 100
16 | CC(NNC(=S)N1CCCC1)c1cccnn1 (stereo unspecified) | > 65.5 | > 100 | – | > 100 | > 100 | > 62.9 | > 59.3 | – | – | > 81.5 | – | > 44 | > 100 | > 100 | > 28.7 | > 100 | > 100 | > 100
17 | C[n+]1ccc2/c(=C\C#N)c3ccccc3n21 | 83 | 72.1 | > 100 | 45.1 | 51.4 | > 100 | 78.3 | 63.2 | > 100 | > 100 | 52.7 | > 100 | > 100 | 30.1 | – | 63 | > 100 | 44.6
18 | CC(Cn1c(=O)oc2ccccc21)N(C)C (stereo unspecified) | > 100 | > 100 | > 100 | > 100 | > 100 | > 100 | > 100 | – | > 100 | > 100 | – | > 100 | > 100 | > 100 | > 100 | > 100 | > 100 | > 100
19 | COC1=C(OC)C(=O)C(C/C=C/c2c(Cl)nc3sccn23)=C(C)C1=O | 33.8 | 46.9 | 32.5 | 44.4 | 41.1 | 29.6 | 35.9 | – | 24.2 | 38.6 | 33.3 | 33.5 | 31.6 | 27.6 | – | 23.6 | 31.7 | 17
20 | CC(=O)c1ccc(Nc2nc3ccccc3c3occc23)cc1 | 58.8 | 17.3 | 36.5 | 44.3 | 67.3 | 58 | 36.2 | 49.8 | > 100 | 23 | > 100 | 27.8 | > 100 | > 100 | – | 9.69 | > 100 | 63.4
21 | CCCCCCC(O)C(=O)OC1C2C(CC1(C)C)C(O)C13OC1C(O)C1(CO1)[C@@]23C (stereo partly specified) | > 100 | – | > 100 | > 100 | > 100 | > 100 | > 100 | – | > 100 | – | > 100 | > 100 | > 100 | > 100 | 31.2 | > 100 | > 100 | > 100
22 | Cc1ccc(/C=C2\CCS(=O)(=O)c3ccccc3C2=O)cc1 | 46.3 | 31.9 | 73.6 | 30.6 | 62.3 | 28.2 | 28.7 | 31 | 30.7 | 31.3 | > 100 | 26.1 | 45.3 | 36.5 | 32.9 | 55.2 | 45.1 | –
23 | CSc1c(S(C)=O)c2ccccc2n1C (stereo unspecified) | > 100 | > 100 | > 100 | > 100 | > 100 | > 100 | > 100 | – | > 100 | > 100 | > 100 | > 100 | > 100 | > 100 | > 100 | > 100 | > 100 | > 100
24 | S=C1C(CCCOCc2ccccc2)C2CCCC23CC2(CCN13)OCCS2 (stereo unspecified) | > 10 | > 10 | > 10 | > 10 | > 10 | > 10 | > 10 | > 10 | > 10 | > 10 | – | – | > 10 | > 10 | > 10 | > 10 | > 10 | > 10
25 | COc1cc2c(cc1OC)-c1cc3cc(OC)c(OC)cc3c(C)[n+]1CC2 (tested in a mixture with another compound) | > 100 | > 100 | > 100 | > 100 | 77 | > 100 | > 100 | > 100 | > 100 | 71.2 | > 100 | > 100 | > 100 | > 100 | – | > 100 | > 100 | > 100
26 | CCOC(OCC)[C@@H]1C[C@@H]2N(O[C@H](OC3CCCC3(c3ccccc3)c3ccccc3)[C@H](OC(C)=O)[C@@]2(CC)Cc2ccc(OC)c(OC)c2)O1 (stereo partly specified) | > 100 | > 100 | > 100 | > 100 | > 100 | > 100 | > 100 | – | – | > 100 | > 100 | > 100 | > 100 | > 100 | > 100 | > 100 | > 100 | –
27 | O=c1[nH]nc(-c2ccccc2)n1-n1cccc1 | > 100 | > 100 | > 100 | > 100 | > 100 | > 100 | > 100 | – | > 100 | > 100 | > 100 | > 100 | > 100 | > 100 | > 100 | > 100 | > 100 | > 100
28 | C[C@@]12C[C@@H](c3ccccc3O1)N1CCCSC1=N2 | > 100 | > 100 | > 100 | > 100 | > 100 | > 100 | > 100 | > 100 | > 100 | > 100 | – | > 100 | > 100 | > 100 | > 100 | > 100 | > 100 | > 100
